ChEMBL document CHEMBL4145579, “Plasmodial Kinase Inhibitors: License to Cure?” (J Med Chem, 2018)
Blank lines part the entries; values can stand above or below the compound they belong to.

Assays:
[1] = molecular target: T1, Calcium-dependent protein kinase 1 (Plasmodium falciparum, UniProt P62344); test: Inhibition of Plasmodium falciparum recombinant His-tagged CDPK1 expressed in Escherichia coli BL21(DE3) after 1 hr in presence of [gamma33P]ATP by scintillation proximity assay
[2] = molecular target: Cyclin-dependent kinase 5/CDK5 activator 1 (Homo sapiens) (UniProt Q00535+Q15078); test: Inhibition of recombinant human N-terminal His6-tagged full length CDK5/recombinant human N-terminal GST-tagged full length p25 at 10 uM; type: protein-complex assay
Sequence of Cyclin-dependent kinase 5/CDK5 activator 1 (Homo sapiens) (Q00535 whole entry): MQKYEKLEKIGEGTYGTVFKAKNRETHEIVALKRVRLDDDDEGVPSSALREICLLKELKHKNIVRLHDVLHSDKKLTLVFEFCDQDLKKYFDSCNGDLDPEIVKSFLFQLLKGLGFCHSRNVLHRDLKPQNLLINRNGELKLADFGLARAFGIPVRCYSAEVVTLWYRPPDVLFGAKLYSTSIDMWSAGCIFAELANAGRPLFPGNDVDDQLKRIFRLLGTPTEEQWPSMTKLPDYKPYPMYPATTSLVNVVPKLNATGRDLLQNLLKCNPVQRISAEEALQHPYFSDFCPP
Sequence of Cyclin-dependent kinase 5/CDK5 activator 1 (Homo sapiens) (Q15078 99-307 partner limits assumed): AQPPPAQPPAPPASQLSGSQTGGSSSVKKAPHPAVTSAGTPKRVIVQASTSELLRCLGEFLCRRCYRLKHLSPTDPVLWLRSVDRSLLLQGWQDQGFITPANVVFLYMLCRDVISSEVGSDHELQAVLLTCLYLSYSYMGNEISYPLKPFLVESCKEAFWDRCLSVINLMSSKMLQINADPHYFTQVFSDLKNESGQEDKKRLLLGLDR

[3] = Inhibition of recombinant Plasmodium vivax PI4K
Plasmodium falciparum [4] = test: Antiplasmodial activity drug-sensitive Plasmodium falciparum 3D7 infected in po dosed humanized SCID mouse assessed as decrease in blood parasitemia administered once daily for 4 days measure on day 7 by flow cytometric method; type: functional
Plasmodium berghei [5] = test: Antiplasmodial activity Plasmodium berghei infected in po dosed mouse; type: functional
[6] = molecular target: Mitogen-activated protein kinase 14 (Homo sapiens) (UniProt Q16539); test: Inhibition of recombinant human N-terminal GST-tagged full length SAPK2alpha expressed in Escherichia coli at 10 uM
Sequence of Mitogen-activated protein kinase 14 (Homo sapiens) (Q16539 whole entry, the tested form may be a part): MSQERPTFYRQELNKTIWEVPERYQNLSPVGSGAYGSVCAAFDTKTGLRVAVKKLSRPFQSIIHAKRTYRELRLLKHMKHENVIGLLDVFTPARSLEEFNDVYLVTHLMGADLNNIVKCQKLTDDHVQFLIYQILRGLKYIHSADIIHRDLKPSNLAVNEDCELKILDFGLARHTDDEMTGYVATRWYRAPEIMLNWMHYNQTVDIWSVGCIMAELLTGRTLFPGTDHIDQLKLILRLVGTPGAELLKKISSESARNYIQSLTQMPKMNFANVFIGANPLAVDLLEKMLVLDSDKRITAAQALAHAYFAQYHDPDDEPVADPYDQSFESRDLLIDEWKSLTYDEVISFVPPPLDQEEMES

[7] = molecular target: Fibroblast growth factor receptor 1 (Homo sapiens) (UniProt P11362); test: Inhibition of recombinant human N-terminal GST-tagged FGFR1 (456 to 765 residues) expressed in Escherichia coli at 10 uM
Sequence of Fibroblast growth factor receptor 1 (Homo sapiens) (P11362 22-822 limits assumed): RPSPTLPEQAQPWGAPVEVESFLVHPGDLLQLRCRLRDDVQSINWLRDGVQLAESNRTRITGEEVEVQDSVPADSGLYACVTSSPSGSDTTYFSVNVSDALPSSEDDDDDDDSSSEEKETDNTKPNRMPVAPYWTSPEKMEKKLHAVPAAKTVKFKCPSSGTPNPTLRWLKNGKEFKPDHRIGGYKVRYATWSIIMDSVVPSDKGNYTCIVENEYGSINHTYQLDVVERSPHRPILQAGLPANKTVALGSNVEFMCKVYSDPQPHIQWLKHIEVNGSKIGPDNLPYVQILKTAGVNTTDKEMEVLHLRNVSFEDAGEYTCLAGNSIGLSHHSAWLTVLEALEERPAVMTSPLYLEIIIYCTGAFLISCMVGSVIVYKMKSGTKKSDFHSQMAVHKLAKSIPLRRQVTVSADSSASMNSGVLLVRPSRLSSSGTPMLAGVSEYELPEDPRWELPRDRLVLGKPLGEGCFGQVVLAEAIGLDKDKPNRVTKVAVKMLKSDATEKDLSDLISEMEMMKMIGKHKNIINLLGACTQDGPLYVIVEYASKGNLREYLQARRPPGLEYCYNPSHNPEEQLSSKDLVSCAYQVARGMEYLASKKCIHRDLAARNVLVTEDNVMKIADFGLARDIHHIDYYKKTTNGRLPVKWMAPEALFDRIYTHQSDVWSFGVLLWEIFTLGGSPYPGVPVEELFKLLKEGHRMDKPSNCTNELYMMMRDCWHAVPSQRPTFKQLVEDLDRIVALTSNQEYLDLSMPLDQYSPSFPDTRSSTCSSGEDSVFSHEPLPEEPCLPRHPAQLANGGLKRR

Plasmodium falciparum [8] = test: Antiplasmodial activity against Plasmodium falciparum NF54; type: functional, organism-based
Plasmodium falciparum [9] = test: Inhibition of Plasmodium falciparum NF54 exflagellation measured on day 15 post parasite growth; type: functional, organism-based; conditions: NF54, 360 h
[10] = Inhibition of Plasmodium falciparum PKG
Plasmodium falciparum [11] = test: Antiplasmodial activity against mature gametocytes of Plasmodium falciparum 3D7 […]; type: functional, organism-based
[12] = Inhibition of Plasmodium falciparum recombinant expressed in Toxoplasma gondii after 60 mins in presence of [33P]ATP by scintillation counting
Plasmodium falciparum [13] = test: Antiplasmodial activity against chloroquine-sensitive Plasmodium falciparum Dd2 gametocyte form infected in human erythrocytes by scintillation counting-based [3H]-hypoxanthine incorporation assay; type: functional, organism-based
Plasmodium falciparum [14] = test: Antiplasmodial activity against Plasmodium falciparum NF54 gametocyte form infected in human erythrocytes by scintillation counting-based [3H]-hypoxanthine incorporation assay; type: functional, organism-based
Plasmodium falciparum [15] = test: Antiplasmodial activity against mature gametocytes of Plasmodium falciparum NF54 […] by standard membrane feeding assay; type: functional, organism-based
Plasmodium falciparum [16] = test: Antiplasmodial activity against Plasmodium falciparum infected in CD1 mouse at 100 mg/kg, po bid for 4 days; type: functional
Plasmodium falciparum [17] = test: Antiplasmodial activity against chloroquine-sensitive Plasmodium falciparum D6 infected in human red blood cells preincubated for 24 hrs followed by [3H]-hypoxanthine addition measured after 18 hrs by scintillation counting; type: functional, organism-based
[18] = Inhibition of Plasmodium falciparum 3D7 6xHis-tagged PI3K helica domain expressed in Escherichia coli by Western blot analysis
Plasmodium berghei [19] = test: Antiplasmodial activity Plasmodium berghei infected in ip dosed mouse; type: functional
Plasmodium falciparum [20] = test: Antiplasmodial activity against Plasmodium falciparum FCB infected in human erythrocytes after 30 mins by FACS analysis; type: functional, organism-based; conditions: 0.5 h
[21] = molecular target: T2, Calcium-dependent protein kinase 4 (Plasmodium falciparum (isolate 3D7), UniProt Q8IBS5); test: Inhibition of Plasmodium falciparum His-tagged CDPK4 expressed in Escherichia coli BL21(DE3) using […] as substrate after 10 mins in presence of ATP
T2 sequence (Q8IBS5 whole entry): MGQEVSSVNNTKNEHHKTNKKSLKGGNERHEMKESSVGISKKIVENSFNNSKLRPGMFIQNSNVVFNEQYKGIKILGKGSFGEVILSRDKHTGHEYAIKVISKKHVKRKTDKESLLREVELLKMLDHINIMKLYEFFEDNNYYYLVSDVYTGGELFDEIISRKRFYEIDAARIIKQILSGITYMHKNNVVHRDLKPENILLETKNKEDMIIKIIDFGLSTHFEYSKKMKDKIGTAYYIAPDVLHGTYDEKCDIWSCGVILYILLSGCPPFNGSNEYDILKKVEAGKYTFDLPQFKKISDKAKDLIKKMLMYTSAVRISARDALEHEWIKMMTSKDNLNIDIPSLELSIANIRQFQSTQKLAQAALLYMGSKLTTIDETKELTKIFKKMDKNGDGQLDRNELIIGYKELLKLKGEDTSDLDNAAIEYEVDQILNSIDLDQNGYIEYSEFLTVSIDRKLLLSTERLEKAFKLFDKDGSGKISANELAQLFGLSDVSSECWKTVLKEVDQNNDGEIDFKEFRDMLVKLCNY

[22] = molecular target: T1, Calcium-dependent protein kinase 1; test: Inhibition of Plasmodium falciparum recombinant CDPK1 expressed in Escherichia coli expression system after 1 hr in presence of [gamma33P]ATP by scintillation proximity assay

T1 sequence (P62344 whole entry): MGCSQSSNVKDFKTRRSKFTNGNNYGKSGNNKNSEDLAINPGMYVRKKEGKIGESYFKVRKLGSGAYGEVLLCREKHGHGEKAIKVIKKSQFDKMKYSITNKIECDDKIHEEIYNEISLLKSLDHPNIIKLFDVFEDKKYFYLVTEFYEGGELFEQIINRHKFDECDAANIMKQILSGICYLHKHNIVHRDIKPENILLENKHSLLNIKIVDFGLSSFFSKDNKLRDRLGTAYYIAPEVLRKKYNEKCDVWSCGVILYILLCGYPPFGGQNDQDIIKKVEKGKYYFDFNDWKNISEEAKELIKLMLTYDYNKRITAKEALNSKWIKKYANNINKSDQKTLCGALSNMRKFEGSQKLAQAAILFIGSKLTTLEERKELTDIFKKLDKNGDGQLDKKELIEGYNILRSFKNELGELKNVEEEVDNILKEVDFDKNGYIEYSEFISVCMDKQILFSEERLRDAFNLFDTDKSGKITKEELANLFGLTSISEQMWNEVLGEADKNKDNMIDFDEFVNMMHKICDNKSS

- Ki [1]: 37 nM
- inhibition [2]: 89%
Structure (SMILES): CCCNc1ccc2ncc(-c3cccc(O)c3)n2n1

- IC50 [3]: 3.4 nM
Structure (SMILES): CS(=O)(=O)c1ccc(-c2cnc(N)c(-c3ccc(C(F)(F)F)nc3)c2)cc1 [MMV-048]
- ED90 (Plasmodium falciparum [4]): 0.57 mg/kg
- ED90 (Plasmodium berghei [5]): 0.8 mg/kg

- inhibition [6]: 75%
- Ki [1]: 262 nM
- inhibition [7]: 54%
Structure (SMILES): Cc1ccc(C(=O)c2c(N)c(C(N)=O)c3ccccn23)cc1

Structure (SMILES): CCOc1ccc2cc(-c3nn(CC4CCNCC4)c4ncnc(N)c34)ccc2c1
- EC50 (Plasmodium falciparum [8]): 2000 nM
- EC50 (Plasmodium falciparum [9]): 35 nM

- IC50 [10]: 0.13 nM
- IC50 (Plasmodium falciparum [11]): 102 nM
Structure (SMILES): CN(C)Cc1ccn2c(-c3ccnc(NCC4CC4)n3)c(-c3cccc(S(C)(=O)=O)c3)nc2c1

- IC50 (Plasmodium falciparum [13]): 1300 nM
- IC50 (Plasmodium falciparum [11]): 490 nM
- IC50 (Plasmodium falciparum [14]): 490 nM
Structure (SMILES): CN1CCC(c2cc(-c3ccncc3)c(-c3ccc(F)cc3)[nH]2)CC1
- IC50 [12]: 3.5 nM

Structure (SMILES): Cc1cn2c(-c3ccnc(NCC4CC4)n3)c(-c3ccc(F)c(NS(C)(=O)=O)c3)nc2cc1CN(C)C
- IC50 [10]: 0.16 nM
- IC50 (Plasmodium falciparum [15]): 41 nM
- Activity (Plasmodium falciparum [16]): 99.9%
- IC50 (Plasmodium falciparum [11]): 2.1 nM

- EC50 (Plasmodium falciparum [8]): 8000 nM
Structure (SMILES): CCOc1ccc2cc(-c3nn(CC4CCN(C)CC4)c4ncnc(N)c34)ccc2c1
- EC50 (Plasmodium falciparum [9]): 47 nM

- IC50 (Plasmodium falciparum [17]): > 14000 nM
Structure (SMILES): O=C1Nc2ccc(Br)cc2/C1=C\C(=O)c1ccc(F)cc1

Structure (SMILES): C[C@H]1[C@@H](O)O[C@@H]2O[C@@]3(C)CC[C@H]4[C@H](C)CC[C@@H]1[C@@]24OO3 [ARTENIMOL]
- IC50 (Plasmodium falciparum [8]): 3 nM
- IC50 [18]: 4.1 nM
- ED50 (Plasmodium berghei [19]): 1.95 mg/kg

- IC50 (Plasmodium falciparum [8]): 3000 nM
- IC50 [18]: 25000 nM
Structure (SMILES): O=c1cc(N2CCOCC2)oc2c(-c3ccccc3)cccc12 [LY-294002]

- IC50 [3]: 10 nM
Structure (SMILES): COc1cc(-c2cc(-c3ccc(S(C)(=O)=O)cc3)cnc2N)ccc1O
- ED90 (Plasmodium berghei [5]): 43.7 mg/kg

- EC50 (Plasmodium falciparum [20]): 1900 nM
- Ki [21]: 150000 nM
Structure (SMILES): CN1CCN(CCCN2c3ccccc3Sc3ccc(C(F)(F)F)cc32)CC1 [TRIFLUOPERAZINE]

- IC50 [22]: 13 to 17 nM
Structure (SMILES): N[C@H]1CC[C@H](Nc2nc(Nc3ccc(C(=O)N4CCCCC4)cc3)c3ncn(-c4cccc(F)c4)c3n2)CC1 [PURFALCAMINE]
